The MIC is the lowest concentration that inhibits growth of the organism. Low readings indicate a more susceptible organism, high ones a less susceptible organism.

Converted amounts (≈) assume the structure as drawn.

Some test systems named below: Candida albicans 17-88; Debaryomyces hansenii; Acinetobacter baumannii; Candida glabrata; Candida dubliniensis; Candida tropicalis; Cutibacterium acnes; Candida albicans; Staphylococcus aureus MR; Pseudomonas aeruginosa; Enterobacter cloacae; Candida krusei; Kluyveromyces lactis; Staphylococcus aureus; Candida parapsilosis; Klebsiella pneumoniae.
What all share (test): ≥ marks a high value that may be exact or a test limit, other limits are often not marked, values filed in µg/mL are converted to µM
For assay [1], the system named is Enterococcus faecalis 1F-1.
Assay [2] concerns Bacillus amyloliquefaciens ATCC 23842.
Assay [3] concerns Escherichia coli ATCC 25922.
Assay [4] concerns Bacillus subtilis ATCC 6051.
Assay [5] concerns Bacillus cereus ATCC 14579.
Assay [6] concerns Salmonella enterica ATCC H9812.
Assay [7] relates to Pseudomonas aeruginosa PAO1.
Assay [8] deals with Proteus mirabilis ATCC 35659.
Assay [9] has as its system Staphylococcus aureus ATCC 29213.
The test system of assay [10] is Enterococcus faecium 5F-10.
The test system of assay [11] is Bacillus licheniformis ATCC 14580.
Assay [12] concerns Staphylococcus epidermidis ATCC 12228.
For assay [13], the system named is Staphylococcus aureus ATCC 25923.
For assay [14], the system named is Trichophyton rubrum ATCC 28189.
Assay [15] has as its system Candida albicans ATCC 90028.
Assay [16] deals with Pseudomonas aeruginosa CICC 21625.
The subject of assay [17] is Pseudomonas aeruginosa 25349.
Assay [18] relates to Pseudomonas aeruginosa CICC 10419.
Assay [19] deals with Pseudomonas aeruginosa CICC 11421.
For assay [20], the system named is Pseudomonas aeruginosa 21328.
Assay [21] relates to Pseudomonas aeruginosa CICC 11431.
Assay [22] relates to Pseudomonas aeruginosa CICC 11411.
The test system of assay [23] is Pseudomonas aeruginosa CICC 21630.
Assay [24] has as its system Candida albicans NRRL Y-326.
The subject of assay [25] is Pseudomonas aeruginosa ATCC 27853.
Assay [26] has as its system Candida albicans NRRL Y-6359.
The test system of assay [27] is Staphylococcus aureus ATCC 33592.
Assay [28] relates to Klebsiella pneumoniae ATCC 10031.
Assay [29] concerns Pseudomonas aeruginosa ATCC 19660.
The subject of assay [30] is Acinetobacter baumannii ATCC 17978.
For assay [31], the system named is Candida parapsilosis NRRL Y-1763.
Assay [32] has as its system Cutibacterium acnes ATCC 11827.
The subject of assay [33] is Candida parapsilosis NRRL Y-1761.
Assay [34] concerns Staphylococcus epidermidis ATCC 51625.
Assay [35] deals with Cutibacterium acnes ATCC 6919.

As to `CC(C)C[C@H](NC(=O)[C@H](CC(C)C)NC(=O)[C@@H](N)CCC(=O)O)C(=O)N[C@@H](CO)C(=O)N[C@@H](CCCN=C(N)N)C(=O)N[C@H](C(=O)O)C(C)C` [ELLSRV], the MIC in assay [1] was not below 179 µM; in assay [2] it was not below 179 µM; in [3], 89.4 µM (≈ 64 µg/mL); in assay [4], not below 179 µM; in [5] it was not below 179 µM; in assay [6] it was not below 89.4 µM. For the same compound, the MIC in [7] was more than 179 µM; in assay [8] it was not below 179 µM; in [9], more than 179 µM; in [10], not below 179 µM; in [11], not below 179 µM.
In the case of `CC[C@H](C)[C@H](NC(=O)[C@H](Cc1c[nH]c2ccccc12)NC(=O)[C@H](CCCCN)NC(=O)[C@H](Cc1cnc[nH]1)NC(=O)[C@H](Cc1ccccc1)NC(=O)[C@H](CCC(=O)O)NC(=O)[C@H](CCCN=C(N)N)NC(=O)[C@H](CC(C)C)NC(=O)[C@@H](N)Cc1ccccc1)C(=O)N[C@@H](CCC(=O)O)C(=O)N[C@@H](CCCN=C(N)N)C(=O)N[C@H](C(=O)N[C@H](C(=O)NCC(=O)N[C@@H](Cc1c[nH]c2ccccc12)C(=O)N[C@@H](CC(C)C)C(=O)NCC(=O)N[C@@H](CCCCN)C(=O)N[C@H](C(=O)N[C@@H](Cc1ccccc1)C(N)=O)C(C)C)C(C)C)C(C)C` [FLREFHKWIERVVGWLGKVF], the MIC in [12] was 21.3 µM (≈ 54.3 µg/mL); in [13], 32 µM (≈ 81.5 µg/mL); in assay [14] it was not below 256 µM; in assay [15], not below 32 µM.
In the case of `CC(C)C[C@H](NC(=O)[C@H](CCCN=C(N)N)NC(=O)[C@H](CCCN=C(N)N)NC(=O)[C@H](CC(C)C)NC(=O)[C@H](CCCN=C(N)N)NC(=O)[C@H](CCCN=C(N)N)NC(=O)[C@H](CCCN=C(N)N)NC(=O)[C@H](Cc1c[nH]c2ccccc12)NC(=O)[C@H](Cc1c[nH]c2ccccc12)NC(=O)[C@H](CCCN=C(N)N)NC(=O)[C@H](CCCN=C(N)N)NC(=O)[C@H](CCCN=C(N)N)NC(=O)[C@H](CC(C)C)NC(=O)[C@H](CCCN=C(N)N)NC(=O)[C@H](CCCN=C(N)N)NC(=O)[C@@H](N)CC(C)C)C(N)=O` [LRRLRRRWWRRRLRRL], the MIC in assay [16] was 6.65 µM (≈ 16 µg/mL); in assay [17], 4.7 µM (≈ 11.3 µg/mL); in assay [3], 6.65 µM (≈ 16 µg/mL); in assay [18] it was 6.65 µM (≈ 16 µg/mL); in [19], 6.65 µM (≈ 16 µg/mL); in assay [20], 13.3 µM (≈ 32 µg/mL). Also, the minimal inhibitory concentration (MIC) in assay [21] was 6.65 µM (≈ 16 µg/mL); in [9] it was 3.33 µM (≈ 8 µg/mL); in assay [22], 3.33 µM (≈ 8 µg/mL); in [23] it was 3.33 µM (≈ 8 µg/mL).
In the case of `CC[C@H](C)[C@@H]1NC(=O)CNC(=O)[C@H](CCCCN)NC(=O)[C@H](Cc2ccc(O)cc2)NC(=O)[C@@H]2CSSC[C@H](NC1=O)C(=O)N[C@@H](Cc1ccccc1)C(=O)N[C@@H](CCCCN)C(=O)N[C@@H](CCCCN)C(=O)N[C@H](C(=O)N[C@@H](CCCCN)C(N)=O)CSSC[C@H](NC(=O)[C@H](Cc1ccccc1)NC(=O)[C@@H](N)CCCN=C(N)N)C(=O)N[C@@H](Cc1c[nH]c3ccccc13)C(=O)N[C@@H](CCCCN)C(=O)N[C@@H](C(C)C)C(=O)N2` [RFCWKVCYKGICFKKCK], the MIC was found to be 15 µM (≈ 32 µg/mL) in the assay with Candida albicans 17-88; 7.5 µM (≈ 16 µg/mL) against Debaryomyces hansenii; 3.74 µM (≈ 7.98 µg/mL) against Acinetobacter baumannii; 15 µM (≈ 32 µg/mL) with Candida glabrata; 7.47 µM (≈ 16 µg/mL) in assay [24]; 1.87 µM (≈ 3.99 µg/mL) in assay [25]. Also, the MIC in assay [26] was found to be 1.87 µM (≈ 3.99 µg/mL); in assay [27], 1.87 µM (≈ 3.99 µg/mL); against Candida dubliniensis, 7.5 µM (≈ 16 µg/mL); with Candida tropicalis, 2.65 µM (≈ 5.66 µg/mL); in the assay with Cutibacterium acnes, 1.87 µM (≈ 3.99 µg/mL); in [28], 3.74 µM (≈ 7.98 µg/mL). Moreover, the MIC in assay [29] came out at 1.87 µM (≈ 3.99 µg/mL); in assay [30], 7.47 µM (≈ 16 µg/mL); with Candida albicans, 10.6 µM (≈ 22.7 µg/mL); with Staphylococcus aureus MR, 1.87 µM (≈ 3.99 µg/mL); in assay [31] it was 0.934 µM (≈ 2 µg/mL); in the assay on Pseudomonas aeruginosa, 1.87 µM (≈ 3.99 µg/mL). The minimum inhibitory concentration (MIC) against Enterobacter cloacae was found to be 3.74 µM (≈ 7.98 µg/mL); in assay [32] it was 3.74 µM (≈ 7.98 µg/mL); in the assay on Candida krusei, 10.6 µM (≈ 22.7 µg/mL); in the assay with Kluyveromyces lactis it was 3.7 µM (≈ 7.9 µg/mL); in assay [33], 7.47 µM (≈ 16 µg/mL); in assay [34] it was 3.74 µM (≈ 7.98 µg/mL). Besides, the minimal inhibitory concentration (MIC) in the assay on Staphylococcus aureus came to 2.64 µM (≈ 5.64 µg/mL); in assay [35] it was 3.74 µM (≈ 7.98 µg/mL); with Candida parapsilosis it was 15 µM (≈ 32 µg/mL); against Klebsiella pneumoniae, 2.64 µM (≈ 5.64 µg/mL).

The record behind these values is DBAASP.
